Assay results reported in patent US20080200454A1, “CARBON-LINKED TETRAHYDRO-PYRAZOLO-PYRIDINE MODULATORS OF CATHEPSIN S” (priority 2007, published 2008).
Structures can show the parent of a compound that is named as a salt. Where two headings read alike, the source gives them in different places.

Target: Recombinant human cathepsin S (CatS) (Homo sapiens, UniProt P25774)
Experiment: Recombinant human cathepsin S (CatS) inhibition assay, fluorogenic substrate Z-Valine-Valine-Arginine-AMC;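 also: Baculovirus-expressed CatS in pH 5.0 sodium acetate buffer with DTT and NaCl, fluorescence read each minute over 20 min, inhibition derived from rate slope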

Recombinant human cathepsin S (CatS), sequence (P25774 115-331): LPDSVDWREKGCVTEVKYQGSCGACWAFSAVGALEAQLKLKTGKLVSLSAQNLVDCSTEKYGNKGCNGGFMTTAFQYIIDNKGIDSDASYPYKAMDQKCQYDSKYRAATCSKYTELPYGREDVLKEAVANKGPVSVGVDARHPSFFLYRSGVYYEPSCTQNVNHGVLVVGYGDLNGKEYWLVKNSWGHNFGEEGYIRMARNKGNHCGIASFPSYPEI

Structure (SMILES) | IC50 | IC50 (CatS IC50)
CS(=O)(=O)N1CCc2c(c(-c3ccc(Cl)c(C#Cc4ccc(CNC5CCCc6ccccc65)cc4)c3)nn2CCCN2CCN(c3ccccn3)CC2)C1 (stereo in doubt) [Example 215, (1R)—N-({4-[(2-Chloro-5-{5-(methylsulfonyl)-1-[3-(4-pyridin-2-ylpiperazin-1-yl)propyl]-4,5,6,7-tetrahydro-1H-pyrazolo[4,3-c]pyridin-3-yl}phenyl)ethynyl]phenyl}methyl)-1,2,3,4-tetrahydronaphthalen-1-amine] | 30 nM | –
COC(=O)CNCc1cc(C#Cc2cc(-c3nn(CCCN4CCOCC4C)c4c3CN(C(N)=O)CC4)ccc2Cl)ccc1Cl (stereo in doubt) [Example 220, Methyl N-{[5-({5-[5-(aminocarbonyl)-1-{3-[(3S)-3-methylmorpholin-4-yl]propyl}-4,5,6,7-tetrahydro-1H-pyrazolo[4,3-c]pyridin-3-yl]-2-chlorophenyl}ethynyl)-2-chlorophenyl]methyl}glycinate] | 30 nM | –
CC1COCCN1CCCn1nc(-c2ccc(Cl)c(C#Cc3ccc(Cl)c(CNCC(=O)O)c3)c2)c2c1CCN(C(N)=O)C2 (stereo in doubt) [Example 221, N-{[5-({5-[5-(Aminocarbonyl)-1-{3-[(3S)-3-methylmorpholin-4-yl]propyl}-4,5,6,7-tetrahydro-1H-pyrazolo[4,3-c]pyridin-3-yl]-2-chlorophenyl}ethynyl)-2-chlorophenyl]methyl}glycine] | 20 nM | –
CC1COCCN1CCCn1nc(-c2ccc(Cl)c(C#Cc3ccc(Cl)c(CNCC4CCCO4)c3)c2)c2c1CCN(C(N)=O)C2 (stereo in doubt) [Example 223, 3-{4-Chloro-3-[(4-chloro-3-{[(tetrahydrofuran-2-ylmethyl)amino]methyl}phenyl)ethynyl]phenyl}-1-{3-[(3S)-3-methylmorpholin-4-yl]propyl}-1,4,6,7-tetrahydro-5H-pyrazolo[4,3-c]pyridine-5-carboxamide] | 20 nM | –
CC1COCCN1CCCn1nc(-c2ccc(Cl)c(C#Cc3ccc(Cl)c(CNCc4ccccc4)c3)c2)c2c1CCN(C(N)=O)C2 (stereo in doubt) [Example 224, 3-{4-Chloro-3-[(4-chloro-3-{[(phenylmethyl)amino]methyl}phenyl)ethynyl]phenyl}-1-{3-[(3S)-3-methylmorpholin-4-yl]propyl}-1,4,6,7-tetrahydro-5H-pyrazolo[4,3-c]pyridine-5-carboxamide] | – | 20 nM
C[C@H]1COCCN1CC(O)Cn1nc(-c2ccc(Cl)c(C#Cc3ccc(CNCc4ccc(Cl)cc4)cc3)c2)c2c1CCN(C(N)=O)C2 (stereo in doubt) [Example 258, 3-(4-Chloro-3-{4-[(4-chloro-benzylamino)-methyl]-phenylethynyl}-phenyl)-1-[(2S)-2-hydroxy-3-((3S)-3-methyl-morpholin-4-yl)-propyl]-1,4,6,7-tetrahydro-pyrazolo[4,3-c]pyridine-5-carboxylic acid amide] | 80 nM | –
CC1COCCN1C[C@H](O)Cn1nc(-c2ccc(Cl)c(C#Cc3ccc(CNCc4ccc(Cl)cc4)cc3)c2)c2c1CCN(S(C)(=O)=O)C2 (stereo in doubt) [Example 266, (2S)-1-[3-(4-Chloro-3-{4-[(4-chloro-benzylamino)-methyl]-phenylethynyl}-phenyl)-5-methanesulfonyl-4,5,6,7-tetrahydro-pyrazolo[4,3-c]pyridin-1-yl]-3-((3S)-3-methyl-morpholin-4-yl)-propan-2-ol] | 350 nM | –
CS(=O)(=O)N1CCc2c(c(-c3ccc(Cl)c(C#Cc4ccc5[nH]ccc5c4)c3)nn2CCCN2CCOCC2)C1 [Example 1, 3-[4-Chloro-3-(1H-indol-5-ylethynyl)-phenyl]-5-methanesulfonyl-1-(3-morpholin-4-yl-propyl)-4,5,6,7-tetrahydro-1H-pyrazolo[4,3-c]pyridine] | 190 nM | –
CS(=O)(=O)N1CCc2c(c(-c3ccc(Cl)c(CCc4ccc5[nH]ccc5c4)c3)nn2CCCN2CCOCC2)C1 [Example 2, 3-{4-Chloro-3-[2-(1H-indol-5-yl)-ethyl]-phenyl}-5-methanesulfonyl-1-(3-morpholin-4-yl-propyl)-4,5,6,7-tetrahydro-1H-pyrazolo[4,3-c]pyridine] | 350 nM | –
CS(=O)(=O)N1CCc2c(c(-c3ccc(Cl)c(C#Cc4ccc(CCCC(=O)O)cc4)c3)nn2CCCN2CCOCC2)C1 [Example 8, 4-(4-{2-Chloro-5-[5-methanesulfonyl-1-(3-morpholin-4-yl-propyl)-4,5,6,7-tetrahydro-1H-pyrazolo[4,3-c]pyridin-3-yl]-phenylethynyl}-phenyl)-butyric acid] | 190 nM | –
CS(=O)(=O)N1CCc2c(c(-c3ccc(Cl)c(C#Cc4ccc(CCC(=O)O)cc4)c3)nn2CCCN2CCOCC2)C1 [Example 9, 3-(4-{2-Chloro-5-[5-methanesulfonyl-1-(3-morpholin-4-yl-propyl)-4,5,6,7-tetrahydro-1H-pyrazolo[4,3-c]pyridin-3-yl]-phenylethynyl}-phenyl)-propionic acid] | 160 nM | –
COC(=O)Cc1ccc(C#Cc2cc(-c3nn(CCCN4CCOCC4)c4c3CN(S(C)(=O)=O)CC4)ccc2Cl)cc1 [Example 10, (4-{2-Chloro-5-[5-methanesulfonyl-1-(3-morpholin-4-yl-propyl)-4,5,6,7-tetrahydro-1H-pyrazolo[4,3-c]pyridin-3-yl]-phenylethynyl}-phenyl)-acetic acid methyl ester] | 420 nM | –
CS(=O)(=O)N1CCc2c(c(-c3ccc(Cl)c(C#Cc4cccs4)c3)nn2CCCN2CCOCC2)C1 [Example 12, 3-(4-Chloro-3-thiophen-2-ylethynyl-phenyl)-5-methanesulfonyl-1-(3-morpholin-4-yl-propyl)-4,5,6,7-tetrahydro-1H-pyrazolo[4,3-c]pyridine] | – | 790 nM
CS(=O)(=O)N1CCc2c(c(-c3ccc(Cl)c(C#Cc4ccc(Cl)c(Cl)c4)c3)nn2CCCN2CCOCC2)C1 [Example 13, 3-[4-Chloro-3-(3,4-dichloro-phenylethynyl)-phenyl]-5-methanesulfonyl-1-(3-morpholin-4-yl-propyl)-4,5,6,7-tetrahydro-1H-pyrazolo[4,3-c]pyridine] | – | 320 nM
CS(=O)(=O)N1CCc2c(c(-c3ccc(Cl)c(C#Cc4ccc(Oc5ccc(I)cc5)cc4)c3)nn2CCCN2CCOCC2)C1 [Example 14, 3-{4-Chloro-3-[4-(4-iodo-phenoxy)-phenylethynyl]-phenyl}-5-methanesulfonyl-1-(3-morpholin-4-yl-propyl)-4,5,6,7-tetrahydro-1H-pyrazolo[4,3-c]pyridine] | 20000 nM | –
CS(=O)(=O)N1CCc2c(c(-c3ccc(Cl)c(C#Cc4ccc(CC(=O)O)cc4)c3)nn2CCCN2CCOCC2)C1 [Example 15, (4-{2-Chloro-5-[5-methanesulfonyl-1-(3-morpholin-4-yl-propyl)-4,5,6,7-tetrahydro-1H-pyrazolo[4,3-c]pyridin-3-yl]-phenylethynyl}-phenyl)-acetic acid, trifluoroacetic acid salt] | 150 nM | –
CS(=O)(=O)N1CCc2c(c(-c3ccc(Cl)c(C#Cc4ccc(Oc5ccccc5)cc4)c3)nn2CCCN2CCOCC2)C1 [Example 17, 3-[4-Chloro-3-(4-phenoxy-phenylethynyl)-phenyl]-5-methanesulfonyl-1-(3-morpholin-4-yl-propyl)-4,5,6,7-tetrahydro-1H-pyrazolo[4,3-c]pyridine] | 1900 nM | –

Now from value to molecule, other results behind:

IC50 | Structure (SMILES) | IC50 (CatS IC50)
270 nM | CS(=O)(=O)N1CCc2c(c(-c3ccc(Cl)c(C#Cc4ccc(CC#N)cc4)c3)nn2CCCN2CCOCC2)C1 [Example 3, (4-{2-Chloro-5-[5-methanesulfonyl-1-(3-morpholin-4-yl-propyl)-4,5,6,7-tetrahydro-1H-pyrazolo[4,3-c]pyridin-3-yl]-phenylethynyl}-phenyl)-acetonitrile] | –
750 nM | CS(=O)(=O)N1CCc2c(c(-c3ccc(Cl)c(C#Cc4cccc(CC#N)c4)c3)nn2CCCN2CCOCC2)C1 [Example 4, (3-{2-Chloro-5-[5-methanesulfonyl-1-(3-morpholin-4-yl-propyl)-4,5,6,7-tetrahydro-1H-pyrazolo[4,3-c]pyridin-3-yl]-phenylethynyl}-phenyl)-acetonitrile] | –
290 nM | CS(=O)(=O)N1CCc2c(c(-c3ccc(Cl)c(C#Cc4ccc(CO)cc4)c3)nn2CCCN2CCOCC2)C1 [Example 5, (4-{2-Chloro-5-[5-methanesulfonyl-1-(3-morpholin-4-yl-propyl)-4,5,6,7-tetrahydro-1H-pyrazolo[4,3-c]pyridin-3-yl]-phenylethynyl}-phenyl)-methanol] | –
950 nM | CS(=O)(=O)N1CCc2c(c(-c3ccc(Cl)c(C#Cc4cccc(CO)c4)c3)nn2CCCN2CCOCC2)C1 [Example 6, (3-{2-Chloro-5-[5-methanesulfonyl-1-(3-morpholin-4-yl-propyl)-4,5,6,7-tetrahydro-1H-pyrazolo[4,3-c]pyridin-3-yl]-phenylethynyl}-phenyl)-methanol] | –
250 nM | CS(=O)(=O)N1CCc2c(c(-c3ccc(Cl)c(C#Cc4ccc(O)cc4)c3)nn2CCCN2CCOCC2)C1 [Example 7, 4-{2-Chloro-5-[5-methanesulfonyl-1-(3-morpholin-4-yl-propyl)-4,5,6,7-tetrahydro-1H-pyrazolo[4,3-c]pyridin-3-yl]-phenylethynyl}-phenol] | –
2600 nM | COC(=O)Cc1cccc(C#Cc2cc(-c3nn(CCCN4CCOCC4)c4c3CN(S(C)(=O)=O)CC4)ccc2Cl)c1 [Example 11, (3-{2-Chloro-5-[5-methanesulfonyl-1-(3-morpholin-4-yl-propyl)-4,5,6,7-tetrahydro-1H-pyrazolo[4,3-c]pyridin-3-yl]-phenylethynyl}-phenyl)-acetic acid methyl ester] | –
1150 nM | CS(=O)(=O)N1CCc2c(c(-c3ccc(Cl)c(C#Cc4cccc(CC(=O)O)c4)c3)nn2CCCN2CCOCC2)C1 [Example 16, (3-{2-Chloro-5-[5-methanesulfonyl-1-(3-morpholin-4-yl-propyl)-4,5,6,7-tetrahydro-1H-pyrazolo[4,3-c]pyridin-3-yl]-phenylethynyl}-phenyl)-acetic acid] | –
180 nM | CS(=O)(=O)N1CCc2c(c(-c3ccc(Cl)c(C#Cc4ccc(Br)cc4)c3)nn2CCCN2CCOCC2)C1 [Example 18, 3-[3-(4-Bromo-phenylethynyl)-4-chloro-phenyl]-5-methanesulfonyl-1-(3-morpholin-4-yl-propyl)-4,5,6,7-tetrahydro-1H-pyrazolo[4,3-c]pyridine] | –
